From ChEMBL document CHEMBL1201862, “PubChem BioAssay data set” (2004)
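Interpolation was linear, between the two tested concentrations surrounding the appropriate level; five concentrations were tested over 48 hours in 96-well plates. GI50 = concentration required for 50% inhibition of growth.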 The source made the active and inactive calls. Cut-off read from the data, not from the text of the source: active = GI50 up to about 1.1 µM and inactive = higher.

How the values were obtained:
Experiment in all cases: NCI-60 cell line screen, 48 h
COLO 205 = test system: COLO 205
M14 = test system: M14
SN12C = test system: SN12C
SK-MEL-2 = test system: SK-MEL-2
U-251 = test system: U-251
SNB-75 = test system: SNB-75
NCI-H460 = test system: NCI-H460
786-0 = test system: 786-0
CCRF-CEM = test system: CCRF-CEM
A549 = test system: A549
T47D = test system: T47D
IGROV-1 = test system: IGROV-1
OVCAR-8 = test system: OVCAR-8
UACC-62 = test system: UACC-62
SK-MEL-5 = test system: SK-MEL-5
MDA-MB-435 = test system: MDA-MB-435
OVCAR-3 = test system: OVCAR-3
EKVX = test system: EKVX
SF-268 = test system: SF-268
HT-29 = test system: HT-29
SR = test system: SR
MDA-N = test system: MDA-N
SK-MEL-28 = test system: SK-MEL-28
UO-31 = test system: UO-31
RPMI-8226 = test system: RPMI-8226
SNB-19 = test system: SNB-19
TK-10 = test system: TK-10
K562 = test system: K562
LOX IMVI = test system: LOX IMVI
HCT-15 = test system: HCT-15
A498 = test system: A498
MOLT-4 = test system: MOLT-4
HCC 2998 = test system: HCC 2998
MDA-MB-231 = test system: MDA-MB-231
HCT-116 = test system: HCT-116
OVCAR-4 = test system: OVCAR-4
Hs-578T = test system: Hs-578T
NCI/ADR-RES = test system: NCI/ADR-RES
SF-539 = test system: SF-539
CAKI-1 = test system: CAKI-1
HL-60 = test system: HL-60
DU-145 = test system: DU-145
PC-3 = test system: PC-3
SW-620 = test system: SW-620
SF-295 = test system: SF-295
MCF7 = test system: MCF7
KM12 = test system: KM12
HOP-92 = test system: HOP-92
SK-OV-3 = test system: SK-OV-3
OVCAR-5 = test system: OVCAR-5
ACHN = test system: ACHN
UACC-257 = test system: UACC-257
BT-549 = test system: BT-549
HOP-62 = test system: HOP-62

Measured: GI50

COc1cc(/C=C2\N=C(c3ccccc3)N(c3ccc(C(=O)c4ccccc4)cc3N3C(=O)/C(=C/c4ccc(O)c(OC)c4)N=C3c3ccccc3)C2=O)ccc1O
5.28 µM: HCT-15
inactive: COLO 205 17.9 µM | M14 11.3 µM | SN12C 17.9 µM | SK-MEL-2 13.4 µM | U-251 9.79 µM | SNB-75 18.8 µM | NCI-H460 4.66 µM | 786-0 18.9 µM | CCRF-CEM 5.45 µM | A549 11.4 µM | T47D 5.18 µM | IGROV-1 7.35 µM | OVCAR-8 12.7 µM | UACC-62 9.62 µM | SK-MEL-5 7.76 µM | MDA-MB-435 2.25 µM | OVCAR-3 3.52 µM | EKVX 25.9 µM | SF-268 15.3 µM | HT-29 20.3 µM | SR 3.85 µM | MDA-N 3.75 µM | SK-MEL-28 21.2 µM | UO-31 13 µM | RPMI-8226 8.51 µM | SNB-19 19.5 µM | TK-10 18.5 µM | K562 5.18 µM | LOX IMVI 10.5 µM | A498 6.92 µM | MOLT-4 3.3 µM | HCC 2998 2.91 µM | MDA-MB-231 12.9 µM | HCT-116 5.62 µM | OVCAR-4 14.9 µM | Hs-578T 10.1 µM | NCI/ADR-RES 6.76 µM | SF-539 5.15 µM | CAKI-1 18.7 µM | HL-60 5.09 µM | DU-145 17 µM | PC-3 11.8 µM | SW-620 7.53 µM | SF-295 6.43 µM | MCF7 5.85 µM | KM12 8.73 µM | HOP-92 22.7 µM | SK-OV-3 12.1 µM | OVCAR-5 32.4 µM | ACHN 17.5 µM | UACC-257 16.8 µM | BT-549 18.7 µM | HOP-62 14.5 µM
